The results in this text go back to US20250099478A1, “PLASMA KALLIKREIN INHIBITORS” (Merck Sharp & Dohme LLC, priority 2022, published 2025).

For orientation: IC50 means the concentration that inhibits the measured activity by half.

The structures appear in SMILES notation.

T1 sequence (P03952 391-638 limits assumed): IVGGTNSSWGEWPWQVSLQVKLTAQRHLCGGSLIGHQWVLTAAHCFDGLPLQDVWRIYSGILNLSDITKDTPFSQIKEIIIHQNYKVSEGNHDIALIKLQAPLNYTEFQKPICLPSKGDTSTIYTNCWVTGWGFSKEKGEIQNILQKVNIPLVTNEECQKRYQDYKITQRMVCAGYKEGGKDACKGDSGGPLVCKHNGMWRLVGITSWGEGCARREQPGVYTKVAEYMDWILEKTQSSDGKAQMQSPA
T1 sequence (P03952 20-390 partner limits assumed): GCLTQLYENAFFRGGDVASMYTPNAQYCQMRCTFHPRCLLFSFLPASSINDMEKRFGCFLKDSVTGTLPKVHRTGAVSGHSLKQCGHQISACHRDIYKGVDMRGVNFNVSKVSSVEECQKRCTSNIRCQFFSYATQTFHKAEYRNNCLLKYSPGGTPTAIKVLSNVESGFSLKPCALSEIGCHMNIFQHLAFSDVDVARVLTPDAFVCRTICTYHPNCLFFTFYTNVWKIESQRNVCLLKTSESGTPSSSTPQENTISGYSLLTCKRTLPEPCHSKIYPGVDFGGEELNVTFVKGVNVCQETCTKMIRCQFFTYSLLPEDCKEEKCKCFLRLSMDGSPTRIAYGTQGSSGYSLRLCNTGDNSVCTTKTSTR

The assay concerns the target T1, Human plasma kallikrein (Homo sapiens, UniProt P03952).
T1 construct: yields a heavy chain (371 amino acids) and a light chain (248 amino acids); purchased Enzyme Research Laboratories
Put plainly: Plasma Kallikrein Assay. Format: biochemical. The settings on record: purified Human plasma kallikrein 0.5 nM, substrate Acetyl-K-P-R-AFC; read-out: PKal IC50. On the procedure: The effectiveness of a compound of the present invention as an inhibitor of plasma kallikrein can be determined using a relevant purified serine protease, and an appropriate synthetic substrate. The rate of hydrolysis of the chromogenic or fluorogenic substrate by the relevant serine protease was measured both in the absence and presence of compounds of the present invention. Assays were conducted at rt or at 37° C. […] A decrease in the rate of fluorescence change in the presence of inhibitor is indicative of enzyme inhibition. Such methods are known to one skilled in the art. The results of this assay are expressed as the half-maximal inhibitory concentrations (IC50), or the inhibitory constant, Ki.
Plasma kallikrein determinations were made in 50 mM HEPES buffer at pH 7.4 containing 150 mM NaCl, 5 mM CaCl2), and 0.1% PEG 8000 (polyethylene glycol; Fisher Scientific). Determinations were made using purified Human plasma kallikrein at a final concentration of 0.5 nM (Enzyme Research Laboratories) and the synthetic substrate, Acetyl-K-P-R-AFC (Sigma #C6608) at a concentration of […].
Times required to achieve equilibration between enzyme and inhibitor were determined in control experiments. […] IC50 was determined by inflection point from a four parameter logistic curve fit. Ki was calculated using the Cheng Prusoff equation, Ki=IC50/(1+([S]/Km)).
As for `O=C1Nc2ccc(Cl)c(F)c2[C@@]2(CCCN(C(=O)c3nnc(Cc4ccc5c(c4)CCO5)[nH]3)C2)O1` [Example 117, (R)-6-Chloro-1′-(5-((2,3-dihydrobenzofuran-5-yl)methyl)-4H-1,2,4-triazole-3-carbonyl)-5-fluorospiro[benzo[d][1,3]oxazine-4,3′-piperidin]-2(1H)-one], the IC50 came to 34.8 nM.

With `O=C1Nc2ccc(Cl)c(F)c2[C@@]2(CCCN(C(=O)c3nnc(Cc4cccc(Cl)c4)[nH]3)C2)O1` [Example 118, (R)-6-Chloro-1′-(5-(3-chlorobenzyl)-4H-1,2,4-triazole-3-carbonyl)-5-fluorospiro[benzo[d][1,3]oxazine-4,3′-piperidin]-2(1H)-one], the 50% inhibitory concentration (IC50) stood at 29.2 nM. With `O=C1Nc2ccc(Cl)c(F)c2[C@@]2(CCCN(C(=O)c3nnc(Cc4ccc5c(c4)OCO5)[nH]3)C2)O1` [Example 119, (R)-1′-(5-(Benzo[d][1,3]dioxol-5-ylmethyl)-4H-1,2,4-triazole-3-carbonyl)-6-chloro-5-fluorospiro[benzo[d][1,3]oxazine-4,3′-piperidin]-2(1H)-one], the IC50 stood at 47.1 nM. For `O=C1Nc2ccc(Cl)c(F)c2[C@@]2(CCCN(C(=O)c3nnc(Cc4cc(F)cc(F)c4)[nH]3)C2)O1` [Example 120, (R)-6-Chloro-1′-(5-(3,5-difluorobenzyl)-4H-1,2,4-triazole-3-carbonyl)-5-fluorospiro[benzo[d][1,3]oxazine-4,3′-piperidin]-2(1H)-one], the IC50 was determined as 21.1 nM. As for `O=C1Nc2ccc(Cl)c(F)c2[C@@]2(CCCN(C(=O)c3nnc(Cc4cc(F)cc(Cl)c4)[nH]3)C2)O1` [Example 121, (R)-6-Chloro-1′-(5-(3-chloro-5-fluorobenzyl)-4H-1,2,4-triazole-3-carbonyl)-5-fluorospiro[benzo[d][1,3]oxazine-4,3′-piperidin]-2(1H)-one], the concentration for half-maximal inhibition (IC50) amounted to 35.4 nM. Consider `O=C1Nc2ccc(Cl)c(F)c2[C@@]2(CCCN(C(=O)c3nnc(Cc4cc(Cl)c5nc[nH]c5c4)[nH]3)C2)O1` [Example 122, (R)-6-Chloro-1′-(5-((4-chloro-1H-benzo[d]imidazol-6-yl)methyl)-4H-1,2,4-triazole-3-carbonyl)-5-fluorospiro[benzo[d][1,3]oxazine-4,3′-piperidin]-2(1H)-one], for which the IC50 amounted to 17.5 nM.

Turning to `Cc1cc(Cc2nnc(C(=O)N3CCC[C@@]4(C3)OC(=O)Nc3ccc(Cl)c(F)c34)[nH]2)cc2[nH]nnc12` [Example 123, (R)-6-Chloro-5-fluoro-1′-(5-((4-methyl-1H-benzo[d][1,2,3]triazol-6-yl)methyl)-4H-1,2,4-triazole-3-carbonyl)spiro[benzo[d][1,3]oxazine-4,3′-piperidin]-2(1H)-one], the IC50 turned out to be 19.1 nM. The value for `O=C1Nc2ccc(Cl)c(F)c2[C@@]2(CCCN(C(=O)c3nnc(Cc4ccc(CO)c(Cl)c4)[nH]3)C2)O1` [Example 125, (R)-6-Chloro-1′-(5-(3-chloro-4-(hydroxymethyl)benzyl)-4H-1,2,4-triazole-3-carbonyl)-5-fluorospiro[benzo[d][1,3]oxazine-4,3′-piperidin]-2(1H)-one] was 20.3 nM; that for `Cc1ccc(Cc2nnc(C(=O)N3CCC[C@@]4(C3)OC(=O)Nc3ccc(Cl)c(F)c34)[nH]2)cc1C` [Example 126, (R)-6-Chloro-1′-(5-(3,4-dimethylbenzyl)-4H-1,2,4-triazole-3-carbonyl)-5-fluorospiro[benzo[d][1,3]oxazine-4,3′-piperidin]-2(1H)-one] was 33.1 nM; that for `O=C1Nc2ccc(Cl)c(F)c2[C@@]2(CCCN(C(=O)c3nc(C(O)c4ccc(F)cc4)n[nH]3)C2)O1` (stereo partly drawn) [Example 127, (4R)-6-Chloro-5-fluoro-1′-(3-((4-fluorophenyl)(hydroxy)methyl)-1H-1,2,4-triazole-5-carbonyl)spiro[benzo[d][1,3]oxazine-4,3′-piperidin]-2(1H)-one] was 39.9 nM. The value for `O=C1Nc2ccc(Cl)c(F)c2[C@]2(CCN(C(=O)c3cnn(Cc4ccc(Cn5ccccc5=O)cc4)c3)C2)O1` [Example 132] was 6.1 nM.
